# Reference: PMC11237654, “Optimization of quenched fluorescent peptide substrates of SARS-CoV-2 3CL^pro main protease (Mpro) from proteomic identification of P6—P6' active site specificity” (Journal of Virology, 2024)
# Several values for one entry are separate records, joined by “and”; a condition that tells them apart may be missing. Identical values can stand only once. Like-named read-outs stand apart in the source and are kept apart here.
# Key:
# SARS-CoV-2 3CL^pro [1] = molecular target: T1, SARS-CoV-2 3CL^pro (Severe acute respiratory syndrome coronavirus 2, UniProt P0DTD1, Q3569A)
# SARS-CoV-2 3CL^pro [2] = molecular target: T1, SARS-CoV-2 3CL^pro; remark: listed apart in the source
# SARS-CoV-2 3CL^pro [3] = molecular target: T1, SARS-CoV-2 3CL^pro; settings: pH 6.9
Substance,^app(kcat/KM) (SARS-CoV-2 3CL^pro [1]; pH 6.9),other results
AAVALQ↓XAHHYAYR [D],No cleavage,
AAVALQ↓XAHHYAYR [listing 1 of 7 here],No cleavage,
AAVALQ↓XAHHYAYR [P],No cleavage,
AAVALQ↓XAHHYAYR [listing 2 of 7 here],No cleavage,
AAVALQ↓XAHHYAYR [listing 3 of 7 here],No cleavage,
AAVALQ↓XAHHYAYR [M],65.8 ± 1.4 M⁻¹ s⁻¹,
AAVALQ↓XAHHYAYR [G],"1,079.1 ± 12.6 M^−1s^−1",
AAVALQ↓XAHHYAYR [N],71.8 ± 3.2 M⁻¹ s⁻¹,
Mca-RVALQ↓XAHYK(Dnp)RR [QFS1-G1'],,"kcat/KM (SARS-CoV-2 3CL^pro [2]): 4,515.7 M^−1·s^−1 and 4,515.7 ± 248"
AAVALQ↓XAHHYAYR [T],No cleavage,
AAVALQ↓XAHHYAYR [E],No cleavage,
AAVALM↓SAHHYAYR [P1-Met],,^app(kcat/KM) (SARS-CoV-2 3CL^pro [1]): 37 M⁻¹ s⁻¹; ^app(kcat/KM) (SARS-CoV-2 3CL^pro [3]): 37 M⁻¹ s⁻¹
AAVALQ↓XAHHYAYR [I],No cleavage,
VALQ↓GAHRVALQ↓XAHYR [Leu],,cleavage at second (test) site with P1' X (SARS-CoV-2 3CL^pro [1]): minimal cleavage
AAVALQ↓XAHHYAYR [listing 4 of 7 here],45.0 ± 0.6 M⁻¹ s⁻¹,
AAVALQ↓XAHHYAYR [listing 5 of 7 here],"1,522.0 ± 7.6 M^−1s^−1",
AAVALX↓SAHHYAYR [P1-His],,^app(kcat/KM) (SARS-CoV-2 3CL^pro [1]): 222 M⁻¹ s⁻¹
AAVALQ↓XAHHYAYR [listing 6 of 7 here],No cleavage,
AAVALQ↓XAHHYAYR [W],No cleavage,
AAVALQ↓XAHHYAYR [listing 7 of 7 here],No cleavage,
AAVALQ↓XAHHYAYR [C],No cleavage,
Mca-RVALQ↓XAHYK(Dnp)RR [QFS1-S1'],,"kcat/KM (SARS-CoV-2 3CL^pro [2]): 13,696.8 M^−1·s^−1 and 13,696.8 ± 269"
AAVALQ↓XAHHYAYR [K],No cleavage,
AAVALQ↓XAHHYAYR [S],"1,519.1 ± 6.2 M^−1s^−1","^app(kcat/KM) (SARS-CoV-2 3CL^pro [1]): 1,528 M^−1s^−1"
Mca-RVALQ↓XAHYK(Dnp)RR [QFS1-A1'],,"kcat/KM (SARS-CoV-2 3CL^pro [2]): 13,131.0 M^−1·s^−1 and 13,131.0 ± 207"
